Reference: US12215111B2, “Imidazopyridazine IL-17 inhibitor compounds” (Janssen Pharmaceutica NV, priority 2021, dated 2025)

Legend:
[1] = molecular target: T1, IL-17A(FLAG-Tagged): IL-17RA(His-Tagged) (Homo sapiens, UniProt Q16552, K93Q); test: IL-17A(FLAG-tagged):IL-17RA(His-tagged) binding disruption Eu-HTRF assay, Protocol 2; details: FLAG tagged IL-17A at 2× final concentration (1 nM); simple average if tested more than once
Excerpt: (§1) IL-17A(FLAG-Tagged): IL-17RA(His-Tagged) Binding Disruption Eu-HTRF Assay
(§2) An antibody directed against the FLAG tag of IL-17A (SEQ ID NO:1) is labeled with the HTRF donor chromophore (Europium-cryptate). IL-17A is present as a dimer that is “locked into” this quaternary structure due to the formation of loop-spanning […] disulfide bridges. The construct of IL-17RA used in the assay excludes the outer-membrane portion of the receptor and is fused to a C-terminal 10×His tag (SEQ ID NO:2). An antibody directed against the His tag of the IL-17RA chimera is labeled with the HTRF acceptor chromophore (“D2”). The fluorescence-resonance energy transfer (FRET) depends on the vicinity of the donor chromophore to the acceptor, and interruption of the binding between the IL-17A and IL-17RA causes the reduction/loss of FRET. Therefore, this assay allows to evaluate the compound effect on the binding IL-17A and IL-17RA by monitoring the fluorescence intensity of donor vs acceptor. The assay was run using either Protocol 1 or Protocol 2 described below.
(§3) Protocol 2. 40 nl of 2-fold serial diluted compound solution for total 22 dilution points is added into each well of a 1536-well, white, low-volume, non-binding plate (Greiner #782904), then 2 μl of FLAG tagged IL-17A at 2× final concentration (1 nM) in solution of PBS+0.01% Triton-X100 is added to each well. The assay plate is briefly centrifuged then incubated for 1 h at rt. A mixed solution is prepared containing 2×5 nM 10HIS×IL-17RA, 2×2.5 nM Eu-anti-FLAG (CISBIO), 2×5 nM D2-anti-HIS (CISBIO) in PBS+0.01% Triton-X100+200 mM Potassium Fluoride (Sigma 60238) and […] of mix is added to each well of the assay plate. The plate is briefly centrifuged then incubated for 2 h at rt. The HTRF intensities at the wavelength of donor (615 nm) and acceptor (665 nm) are measured using BMG Pherastar. The ratio between intensities at two wavelengths is calculated and plotted against the compound concentration and the data is fitted to a one-site competition model to yield IC50 of the compound.

[2] = tested on: IL-17A-induced G-CSF production in human normal keratinocyte (NHK); test: NHK assay: IL-17A-induced G-CSF production in normal human keratinocytes; assay type: cell-based; details: Homo sapiens, Keratinocyte; IL-17A 5 ng/mL, 24 h at 37° C., G-CSF by HTRF; simple average if tested more than once
Description: IL-17A acts directly on keratinocytes through binding to dimeric receptor IL-17RA/RC and drives the production of a number of inflammatory mediators known to be elevated in psoriasis lesional tissue. IL-17A small molecule inhibitors that block the IL-17A to interact with IL-17R would inhibit the IL-17A signaling in its targeted cells such as keratinocytes. The compound functional activity is evaluated for its impact on IL-17A-induced G-CSF production in human normal keratinocyte (NHK).
Adult normal human keratinocytes are cultured in keratinocyte growth medium (Lonza) in a flask till reaching ˜90% confluence, then cells are transferred to a 384-well plate at density of 3000-4000 cell/well. Recombinant human IL-17A (Gibco PHC9174) is pre-incubated with titrated compound or DMSO for 1 h at rt then added to the cell culture plate. The final concentration of IL-17A is 5 ng/mL and DMSO is 0.2%, in the culture containing 5% FBS. Cells are cultured/treated for 24 h at 37° C. Supernatants are collected and G-CSF production is measured through HTRF technology using Human G-CSF Kit (CisBio). G-CSF concentration was extrapolated from the standard curve and IC50 is determined using GraphPad Prism. Cell viability is also evaluated using CellTiter-Glo kit (Promega) and effect of compound on cell viability is compared to DMSO control.

[3] = molecular target: T1, IL-17A(FLAG-Tagged): IL-17RA(His-Tagged); test: IL-17A(FLAG-tagged):IL-17RA(His-tagged) binding disruption Eu-HTRF assay, Protocol 1; details: FLAG tagged IL-17A at 2× final concentration (2.5 nM); simple average if tested more than once
Excerpt: as §1, §2
as §3, with “Protocol 1:” for “Protocol 2.”, “40 nL” for “40 nl”, “concentration (2.5” for “concentration (1”, “donor (620” for “donor (615”

[4] = moderate-to-severe HS, seven of nine patients, open-label pilot-trial; cited from earlier work

T1 sequence (Q16552 with tags, fused parts or gaps K93Q): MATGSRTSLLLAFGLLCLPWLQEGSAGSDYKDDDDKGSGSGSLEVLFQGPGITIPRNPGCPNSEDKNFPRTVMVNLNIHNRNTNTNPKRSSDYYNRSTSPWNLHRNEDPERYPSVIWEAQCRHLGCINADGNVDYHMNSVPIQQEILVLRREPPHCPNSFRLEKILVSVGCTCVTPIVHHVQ

Compound | IC50 [1] | IC50 [2] | IC50 [3] | patients who achieved HiSCR [4]
CC(C)n1nccc1C(=O)N[C@H](c1cn2ncc([C@@H](COC3CC3)N3C[C@@H](C(F)(F)F)NC3=O)cc2n1)C1CCC(F)(F)CC1 (single isomer, unassigned) [Example 43] | < 4 µM | < 4 µM |  | 
COCCC(c1cnn2cc([C@@H](NC(=O)c3nonc3OC)C3CCC(F)(F)CC3)nc2c1)N1C[C@@H](C(F)(F)F)NC1=O (single isomer, unassigned) [Example 42, N—((S)—(4,4-Difluorocyclohexyl)(7-((R*)-3-methoxy-1-((S)-2-oxo-4-(trifluoromethyl)imidazolidin-1-yl)propyl)imidazo[1,2-b]pyridazin-2-yl)methyl)-4-methoxy-1,2,5-oxadiazole-3-carboxamide] | < 4 µM | < 4 µM |  | 
CC(C)n1nccc1C(=O)N[C@H](c1cn2ncc(CN3CC4(CC(F)(F)C4)NC3=O)cc2n1)C1CCC(F)(F)CC1 [Example 46, (S)—N-((7-((2,2-Difluoro-6-oxo-5,7-diazaspiro[3.4]octan-7-yl)methyl)imidazo[1,2-b]pyridazin-2-yl)(4,4-difluorocyclohexyl)methyl)-1-isopropyl-1H-pyrazole-5-carboxamide] | < 4 µM | 4 to 10 µM |  | 
COC[C@H](c1cnn2cc([C@H](CCC(C)(C)C(F)(F)F)NC(=O)c3nonc3OC)nc2c1)N1C[C@@](C)(C(F)(F)F)NC1=O [Example 47, 4-Methoxy-N—((S)-5,5,5-trifluoro-1-(7-((S)-2-methoxy-((S)-4-methyl-2-oxo-4-(trifluoromethyl)imidazolidin-1-yl)ethyl)imidazo[1,2-b]pyridazin-2-yl)-4,4-dimethylpentyl)-1,2,5-oxadiazole-3-carboxamide] | < 4 µM | < 4 µM |  | 
Cc1nonc1C(=O)N[C@@H](CCC(C)(C)C(F)(F)F)c1cn2ncc(CN3C[C@](C)(C(F)(F)F)NC3=O)cc2n1 [Example 49, 4-Methyl-N—((S)-5,5,5-trifluoro-4,4-dimethyl-1-(7-(((R)-4-methyl-2-oxo-4-(trifluoromethyl)imidazolidin-1-yl)methyl)imidazo[1,2-b]pyridazin-2-yl)pentyl)-1,2,5-oxadiazole-3-carboxamide] | < 4 µM | < 4 µM |  | 
COCC(c1cnn2cc([C@H](COC(C)(C)C(F)(F)F)NC(=O)c3nonc3C)nc2c1)N1C[C@@](C)(C(F)(F)F)NC1=O (some centres unmarked) [Example 23] | < 4 µM | < 4 µM |  | 
COCC[C@H](c1cnn2cc([C@@H](NC(=O)c3nonc3C3CC3)C3CCC(F)(F)CC3)nc2c1)N1C[C@@H](C(F)(F)F)NC1=O [Example 41, 4-Cyclopropyl-N—((S)—(4,4-difluorocyclohexyl)(7-((R)-3-methoxy-1-((S)-2-oxo-4-(trifluoromethyl)imidazolidin-1-yl)propyl)imidazo[1,2-b]pyridazin-2-yl)methyl)-1,2,5-oxadiazole-3-carboxamide] | < 4 µM | < 4 µM |  | 
Cc1nonc1C(=O)N[C@@H](CCC(C)(C)C(F)(F)F)c1cn2ncc(CN3C[C@@](C)(C(F)(F)F)NC3=O)cc2n1 [Example 48, 4-Methyl-N—((S)-5,5,5-trifluoro-4,4-dimethyl-1-(7-(((S)-4-methyl-2-oxo-4-(trifluoromethyl)imidazolidin-1-yl)methyl)imidazo[1,2-b]pyridazin-2-yl)pentyl)-1,2,5-oxadiazole-3-carboxamide] | < 4 µM | < 4 µM |  | 
COC[C@H](c1cnn2cc([C@H](CCC(C)(C)C(F)(F)F)NC(=O)c3nonc3C)nc2c1)N1C[C@@](C)(C(F)(F)F)NC1=O (single isomer, unassigned) [Example 31] | < 4 µM | < 4 µM |  | 
COC[C@H](c1cnn2cc([C@@H](NC(=O)c3nonc3C)C3CCC(F)(F)CC3)nc2c1)N1C[C@@H](C(F)F)NC1=O [Example 26, N—((S)—(4,4-Difluorocyclohexyl)(7-((S)-1-((S)-4-(difluoromethyl)-2-oxoimidazolidin-1-yl)-2-methoxyethyl)imidazo[1,2-b]pyridazin-2-yl)methyl)-4-methyl-1,2,5-oxadiazole-3-carboxamide] | < 4 µM | < 4 µM |  | 
COC[C@H](c1cnn2cc([C@@H](NC(=O)c3nonc3C)C3CCC(F)(F)CC3)nc2c1)N1C[C@@H](C2(C#N)CC2)NC1=O [Example 25, N—((S)-(7-((S)-1-((R)-4-(1-Cyanocyclopropyl)-2-oxoimidazolidin-1-yl)-2-methoxyethyl)imidazo[1,2-b]pyridazin-2-yl)(4,4-difluorocyclohexyl)methyl)-4-methyl-1,2,5-oxadiazole-3-carboxamide] | < 4 µM | < 4 µM |  | 
Cc1nonc1C(=O)N[C@@H](CC(C)(C)C(F)(F)F)c1cn2ncc([C@@H](COC3CC3)N3C[C@@H](C(F)(F)F)NC3=O)cc2n1 [Example 37] | < 4 µM | < 4 µM |  | 
O=C(N[C@H](c1cn2ncc(CN3C(=O)N[C@@H]4CC(F)(F)C[C@@H]43)cc2n1)C1CCC(F)(F)CC1)c1nonc1C1CC1 (single isomer, unassigned) [Example 7, 4-Cyclopropyl-N—((S)-(7-(((3aR*,6aS*)-5,5-difluoro-2-oxohexahydrocyclopenta[d]imidazol-1(2H)-yl)methyl)imidazo[1,2-b]pyridazin-2-yl)(4,4-difluorocyclohexyl)methyl)-1,2,5-oxadiazole-3-carboxamide] | < 4 µM | < 4 µM | < 4 µM | 
secukinumab |  |  |  | 78%
Cc1nonc1C(=O)N[C@@H](COC(C)(C)C(F)(F)F)c1cn2ncc([C@@H](COC3CC3)N3C[C@@H](C(F)(F)F)NC3=O)cc2n1 [Example 45] | < 4 µM | < 4 µM |  | 
COC[C@H](c1cnn2cc([C@@H](NC(=O)c3nonc3C)[C@@H](C)O[C@H](C)C(F)(F)F)nc2c1)N1C[C@@H](C(F)(F)F)NC1=O [Example 27, N-((1R,2R)-1-(7-((S)-2-Methoxy-1-((S)-2-oxo-4-(trifluoromethyl)imidazolidin-1-yl)ethyl)imidazo[1,2-b]pyridazin-2-yl)-2-(((R)-1,1,1-trifluoropropan-2-yl)oxy)propyl)-4-methyl-1,2,5-oxadiazole-3-carboxamide] | < 4 µM | < 4 µM |  | 
